Experimental data from ChEMBL document CHEMBL1201862, “PubChem BioAssay data set” (2004).
Activity calls are given as the source filed them. Cut-off read from the data, not from the text of the source: actives have a measured IC50 and inactives only a lower limit.

Molecular target: Envelope glycoprotein gp160 (Human immunodeficiency virus 1, UniProt Q6QLK5)
Test: cell-free HIV fusion peptide-binding blockers – biochemical, uHTS, fluorescence dequenching, […] (AID 1986)

Sequence of Envelope glycoprotein gp160 (Q6QLK5 whole entry, the tested form may be a part): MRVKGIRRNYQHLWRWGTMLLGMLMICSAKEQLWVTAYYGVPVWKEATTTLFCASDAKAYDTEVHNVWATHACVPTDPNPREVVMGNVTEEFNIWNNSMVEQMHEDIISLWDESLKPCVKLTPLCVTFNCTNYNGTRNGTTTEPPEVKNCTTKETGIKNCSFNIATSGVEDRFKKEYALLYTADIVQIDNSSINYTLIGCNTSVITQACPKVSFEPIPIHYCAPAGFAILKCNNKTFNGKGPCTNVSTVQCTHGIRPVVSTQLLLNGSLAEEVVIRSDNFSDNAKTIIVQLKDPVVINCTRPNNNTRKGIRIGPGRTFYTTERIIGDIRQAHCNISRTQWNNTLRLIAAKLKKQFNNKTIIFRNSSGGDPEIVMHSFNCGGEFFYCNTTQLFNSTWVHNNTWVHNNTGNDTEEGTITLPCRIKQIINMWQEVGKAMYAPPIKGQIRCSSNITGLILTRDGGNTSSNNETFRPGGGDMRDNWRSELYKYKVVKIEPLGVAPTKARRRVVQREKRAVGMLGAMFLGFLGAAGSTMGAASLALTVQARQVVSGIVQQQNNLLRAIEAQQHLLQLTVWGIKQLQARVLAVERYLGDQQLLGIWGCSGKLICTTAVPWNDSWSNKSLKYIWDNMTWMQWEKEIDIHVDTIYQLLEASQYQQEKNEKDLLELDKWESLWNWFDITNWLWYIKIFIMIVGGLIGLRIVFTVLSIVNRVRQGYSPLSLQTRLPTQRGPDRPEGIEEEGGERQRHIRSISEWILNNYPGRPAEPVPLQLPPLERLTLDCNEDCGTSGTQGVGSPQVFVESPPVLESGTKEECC

SMILES | IC50
CCCOc1ccc(C2C(C(=O)c3cc4ccccc4o3)=C(O)C(=O)N2c2cc(C)on2)cc1 (configuration not stated) | 16.5 µM (active)
COc1ccc(/C=N/NC(=O)c2[nH]c3ccc(Br)cc3c2-c2ccccc2)c(C(=O)O)c1OC | 19.4 µM (active)
